Counter-ions that a name gives are not always drawn.
Structure (SMILES)	melting point
C[C@@H]1CCCN1CCc1ccc2cc(Br)ccc2c1 (as salt: HCl) [Example 2, (2R)-1-[2-(6-bromo-2-naphthyl)ethyl]-2-methylpyrrolidine]	247.3 to 250.7 °C
C[C@@H]1CCCN1CCc1ccc2cc(C#N)ccc2c1 (as salt: hydrochloride) [Example 5, 6-{2-[(2R)-2-methyl-1-pyrrolidinyl]ethyl}-2-naphthonitrile]	187.4 to 188.6 °C
C[C@@H]1CCCN1Cc1ccc2cc(-c3ccc(C#N)cc3)ccc2c1 (as salt: hydrochloride) [Example 6, 4-(6-{[(2R)-2-methyl-1-pyrrolidinyl]methyl}-2-naphthyl)benzonitrile]	212.6 to 213.6 °C
C[C@@H]1CCCN1CCc1ccc2cc(-c3ccc(F)cc3)ccc2n1 (as salt: hydrochloride) [Example 43, 6-(4-fluorophenyl)-2-{2-[(2R)-2-methyl-1-pyrrolidinyl]ethyl}quinoline]	145 °C
CC(=O)c1cccc(-c2ccc3nc(CCN4CCC[C@H]4C)ccc3c2)c1 (as salt: hydrochloride) [Example 45, 1-[3-(2-{2-[(2R)-2-methyl-1-pyrrolidinyl]ethyl}-6-quinolinyl)phenyl]ethanone]	174 to 175 °C
COc1ccc(-c2ccc3nc(CCN4CCC[C@H]4C)ccc3c2)cc1 (as salt: hydrochloride) [Example 46, 6-(4-methoxyphenyl)-2-{2-[(2R)-2-methyl-1-pyrrolidinyl]ethyl}quinoline]	165 °C (dec.)
C[C@@H]1CCCN1CCc1ccc2cc(-c3ccc(C(F)(F)F)cc3)ccc2n1 (as salt: hydrochloride) [Example 47, 2-{2-[(2R)-2-methyl-1-pyrrolidinyl]ethyl}-6-[4-(trifluoromethyl)phenyl]quinoline]	143 to 145 °C (dec.)
C[C@@H]1CCCN1CCc1ccc2cc(-c3cc(F)cc(F)c3)ccc2n1 (as salt: hydrochloride) [Example 49, 6-(3,5-difluorophenyl)-2-{2-[(2R)-2-methyl-1-pyrrolidinyl]ethyl}quinoline]	164 to 165 °C
C[C@@H]1CCCN1CCc1ccc2cc(-c3ccc(C#N)cc3)ccc2c1 (as salt: tartrate) [Example 1, 4-(6-{2-[(2R)-2-methyl-1-pyrrolidinyl]ethyl}-2-naphthyl)benzonitrile]	157.4 to 158.1 °C
C[C@@H]1CCCN1CCc1ccc2cc(-c3ccc(C#N)cc3)ccc2n1 (as salt: tartrate) [Example 42, 4-(2-{2-[(2R)-2-methyl-1-pyrrolidinyl]ethyl}-6-quinolinyl)benzonitrile]	164 °C
C[C@@H]1CCCN1CCc1ccc2cc(-c3cccc(C#N)c3)ccc2n1 (as salt: tartrate) [Example 44, 3-(2-{2-[(2R)-2-methyl-1-pyrrolidinyl]ethyl}-6-quinolinyl)benzonitrile]	172 °C
C[C@@H]1CCCN1CCc1ccc2cc(-c3cccc(C#N)c3)ccc2c1 [Example 7, 3-(6-{2-[(2R)-2-methyl-1-pyrrolidinyl]ethyl}-2-naphthyl)benzonitrile]	228.5 to 231.6 °C

The next lines start with the values.

melting point	Structure (SMILES)
162 to 164 °C (dec.)	C[C@@H]1CCCN1CCc1ccc2cc(C(=O)c3cccc(F)c3)ccc2n1 (as salt: hydrochloride) [Example 50, (3-fluorophenyl)(2-{2-[(2R)-2-methyl-1-pyrrolidinyl]ethyl}-6-quinolinyl)methanone]
205 to 207 °C	C[C@@H]1CCCN1CCc1ccc2cc(-c3cccnc3)ccc2n1 (as salt: hydrochloride) [Example 51, 2-{2-[(2R)-2-methyl-1-pyrrolidinyl]ethyl}-6-(3-pyridinyl)quinoline]
145 to 147 °C	C[C@@H]1CCCN1CCc1ccc2cc(-c3ccncc3)ccc2n1 (as salt: hydrochloride) [Example 107, 2-[2-(2R-Methyl-pyrrolidin-1-yl)-ethyl]-6-pyridin-4-yl-quinoline]
105 to 107 °C	C[C@@H]1CCCN1CCc1ccc2cc(-c3ccc(Cl)nc3Cl)ccc2n1 (as salt: hydrochloride) [Example 111, 6-(2,6-Dichloro-pyridin-3-yl)-2-[2-(2(R)-methyl-pyrrolidin-1-yl)-ethyl]-quinoline]
160 to 162 °C	C[C@@H]1CCCN1CCc1ccc2cc(-c3cncnc3)ccc2n1 (as salt: hydrochloride) [Example 113, 2-[2-(2(R)-Methyl-pyrrolidin-1-yl)-ethyl]-6-pyrimidin-5-yl-quinoline]
154 to 155 °C	C[C@@H]1CCCN1CCc1ccc2cc(-c3ccc(Cl)cc3)ccc2n1 (as salt: hydrochloride) [Example 117, 6-(4-Chloro-phenyl)-2-[2-(2(R)-methyl-pyrrolidin-1-yl)-ethyl]-quinoline]
176 to 177 °C	Cc1ccc(-c2ccc3nc(CCN4CCC[C@H]4C)ccc3c2)c(C)n1 (as salt: hydrochloride) [Example 118, 6-(2,6-Dimethyl-pyridin-3-yl)-2-[2-(2(R)-methyl-pyrrolidin-1-yl)-ethyl]-quinoline]
174 to 175 °C	Cc1noc(C)c1-c1ccc2nc(CCN3CCC[C@H]3C)ccc2c1 (as salt: hydrochloride) [Example 120, 6-(3,5-Dimethyl-isoxazol-4-yl)-2-[2-(2(R)-methyl-pyrrolidin-1-yl)-ethyl]-quinoline]
172 to 174 °C	COC(=O)c1ccc(-c2ccc3nc(CCN4CCC[C@H]4C)ccc3c2)cc1 (as salt: hydrochloride) [Example 121, 4-{2-[2-(2(R)-Methyl-pyrrolidin-1-yl)-ethyl]-quinolin-6-yl}-benzoic acid methyl ester]
158 to 159 °C	CSc1ccc(-c2ccc3nc(CCN4CCC[C@H]4C)ccc3c2)cc1 (as salt: hydrochloride) [Example 122, 2-[2-(2(R)-Methyl-pyrrolidin-1-yl)-ethyl]-6-(4-methylsulfanyl-phenyl)-quinoline]
162 to 163 °C	C[C@@H]1CCCN1CCc1ccc2cc(-c3ccc(F)nc3)ccc2n1 (as salt: hydrochloride) [Example 123, 6-(6-Fluoro-pyridin-3-yl)-2-[2-(2(R)-methyl-pyrrolidin-1-yl)-ethyl]-quinoline]
132 to 134 °C	COc1ccc(-c2ccc3nc(CCN4CCC[C@H]4C)ccc3c2)cn1 (as salt: tartrate) [Example 108, 6-(6-Methoxy-pyridin-3-yl)-2-[2(R)-(2-methyl-pyrrolidin-1-yl)-ethyl]-quinoline]
142 to 143 °C	C[C@@H]1CCCN1CCc1ccc2cc(-c3ccc(F)nc3F)ccc2n1 (as salt: tartrate) [Example 109, 6-(2,6-Difluoro-pyridin-3-yl)-2-[2-(2R-methyl-pyrrolidin-1-yl)-ethyl]-quinoline]
167 to 168 °C	C[C@@H]1CCCN1CCc1ccc2cc(-c3ccc(Cl)nc3)ccc2n1 (as salt: tartrate) [Example 110, 6-(6-Chloro-pyridin-3-yl)-2-[2-(2(R)-methyl-pyrrolidin-1-yl)-ethyl]-quinoline]
155 to 156 °C	C[C@@H]1CCCN1CCc1ccc2cc(-c3ccc(N(C)C)cc3)ccc2n1 (as salt: tartrate) [Example 115, Dimethyl-(4-{2-[2-(2(R)-methyl-pyrrolidin-1-yl)-ethyl]-quinolin-6-yl}-phenyl)-amine]
152 to 154 °C	CC(=O)c1ccc(-c2ccc3nc(CCN4CCC[C@H]4C)ccc3c2)cc1 (as salt: tartrate) [Example 116, 1-(4-{2-[2-(2(R)-Methyl-pyrrolidin-1-yl)-ethyl]-quinolin-6-yl}-phenyl)-ethanone]
100 to 102 °C	C[C@@H]1CCCN1CCc1ccc2cc(-c3cncc(C#N)c3)ccc2n1 (as salt: tartrate) [Example 124, 5-{2-[2-(2(R)-Methyl-pyrrolidin-1-yl)-ethyl]-quinolin-6-yl}-nicotinonitrile]
